One assay has as its target T1, IKKε (Homo sapiens, UniProt Q14164).
T1 construct: purchased Invitrogen PR8031B
T1 sequence (Q14164 1-716): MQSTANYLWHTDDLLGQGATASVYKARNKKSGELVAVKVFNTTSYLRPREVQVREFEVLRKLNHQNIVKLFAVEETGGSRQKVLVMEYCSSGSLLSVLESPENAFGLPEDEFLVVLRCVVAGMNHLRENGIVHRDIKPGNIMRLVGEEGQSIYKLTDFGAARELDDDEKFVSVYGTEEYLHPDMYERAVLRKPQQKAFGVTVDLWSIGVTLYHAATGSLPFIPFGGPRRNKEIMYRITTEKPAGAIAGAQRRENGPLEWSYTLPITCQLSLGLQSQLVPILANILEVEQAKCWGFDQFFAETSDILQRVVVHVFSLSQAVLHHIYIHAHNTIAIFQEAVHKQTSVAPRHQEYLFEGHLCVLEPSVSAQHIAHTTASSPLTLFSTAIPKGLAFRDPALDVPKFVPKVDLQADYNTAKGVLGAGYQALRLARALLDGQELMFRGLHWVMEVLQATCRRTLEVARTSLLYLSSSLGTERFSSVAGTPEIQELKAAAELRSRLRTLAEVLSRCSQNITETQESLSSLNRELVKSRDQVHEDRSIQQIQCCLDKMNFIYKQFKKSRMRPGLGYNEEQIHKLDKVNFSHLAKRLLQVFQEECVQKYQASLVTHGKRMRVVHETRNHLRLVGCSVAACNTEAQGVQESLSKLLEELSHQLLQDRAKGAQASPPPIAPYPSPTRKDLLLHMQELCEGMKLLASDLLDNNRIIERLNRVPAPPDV
Briefly: IKKε inhibition, ADP-Glo Kinase Assay. The format is biochemical. The note with it: luminometer. The procedure, abridged: (§1)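 Each recombinant kinase enzyme system was run per the manufacturer's protocol in 40 mM Tris pH 7.5, 20 mM MgCl2 and 0.1 mg/mL BSA. Kinase activity was detected as ADP formation by ADP-Glo luminescence.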
In general terms: ADP-Glo turns the ADP formed in a reaction into a luminescent signal.

Another assay concerns the target T2, TBK1 (Homo sapiens, UniProt Q9UHD2).
T2 construct: purchased Promega V3991
T2 sequence (Q9UHD2 1-729): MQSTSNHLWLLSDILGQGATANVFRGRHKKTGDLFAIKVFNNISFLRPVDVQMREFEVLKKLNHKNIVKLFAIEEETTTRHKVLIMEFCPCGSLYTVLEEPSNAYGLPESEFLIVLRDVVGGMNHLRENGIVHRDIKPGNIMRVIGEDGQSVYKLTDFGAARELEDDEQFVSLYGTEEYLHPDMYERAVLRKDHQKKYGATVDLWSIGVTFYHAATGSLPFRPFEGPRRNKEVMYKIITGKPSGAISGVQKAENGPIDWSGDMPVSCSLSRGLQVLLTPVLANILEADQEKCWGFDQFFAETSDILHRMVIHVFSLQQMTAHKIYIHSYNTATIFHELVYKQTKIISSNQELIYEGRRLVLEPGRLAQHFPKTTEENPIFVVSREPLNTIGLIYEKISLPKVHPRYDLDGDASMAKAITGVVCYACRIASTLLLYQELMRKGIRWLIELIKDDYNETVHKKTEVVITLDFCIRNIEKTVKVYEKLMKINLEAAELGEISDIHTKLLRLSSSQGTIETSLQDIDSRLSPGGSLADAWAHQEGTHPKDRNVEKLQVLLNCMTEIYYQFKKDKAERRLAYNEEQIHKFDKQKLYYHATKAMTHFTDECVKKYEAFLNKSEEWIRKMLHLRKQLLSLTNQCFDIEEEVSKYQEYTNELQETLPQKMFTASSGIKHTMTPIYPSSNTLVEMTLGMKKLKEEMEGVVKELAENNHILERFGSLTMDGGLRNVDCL
The assay is described as follows: TBK1 inhibition, ADP-Glo Kinase Assay. The format is biochemical. The note with it: luminometer. An outline of the steps:
as §1

Each structure is given as a SMILES string.

What is called IC50 is the concentration that gives 50% inhibition. Turning to `CN1CCN(c2ccc(C(=O)Nc3n[nH]c4ccc(NC(=O)Cc5cccs5)cc34)cc2)CC1` [Example 141, 4-(4-Methylpiperazin-1-yl)-N-(5-(2-(thiophen-2-yl)acetamido)-1H-indazol-3-yl)benzamide], the IC50 against IKKε is 0.38 µM; against TBK1 it was 0.024 µM.

Consider `O=C(Nc1n[nH]c2ccc(C(=O)NC(c3cccnc3)C3CC3)cc12)c1ccc(N2CCOCC2)cc1` (stereo not drawn) [Example 142, N-(Cyclopropyl(pyridin-3-yl)methyl)-3-(4-morpholinobenzamido)-1H-indazole-5-carboxamide], for which the IC50 on IKKε is 0.096 µM; at TBK1, 0.067 µM.

As for `CN1CCN(c2ccc(C(=O)Nc3n[nH]c4ccc(C(=O)NC(c5cccnc5)C5CC5)cc34)cc2)CC1` (stereo not drawn) [Example 143, N-(Cyclopropyl(pyridin-3-yl)methyl)-3-(4-(4-methylpiperazin-1-yl)benzamido)-1H-indazole-5-carboxamide], the IC50 on IKKε amounted to 0.12 µM; against TBK1, 0.071 µM.

As to `O=C(Cc1cccs1)Nc1ccc2[nH]nc(NC(=O)c3ccc(N4CCOCC4)cc3)c2c1` [Example 144, 4-Morpholino-N-(5-(2-(thiophen-2-yl)acetamido)-1H-indazol-3-yl)benzamide], the IC50 stood at 0.25 µM against IKKε and 0.069 µM against TBK1.

Turning to `CN1CCN(c2ccc(C(=O)Nc3n[nH]c4ccc(C(=O)NC(C)(C)c5ccsc5)cc34)cc2)CC1` [Example 145, 3-(4-(4-methylpiperazin-1-yl)benzamido)-N-(2-(thiophen-3-yl)propan-2-yl)-1H-indazole-5-carboxamide], the IC50 came to 0.033 µM on IKKε and 0.012 µM at TBK1.

For `CN1CCN(c2ccc(C(=O)Nc3n[nH]c4ccc(C(=O)NCc5ccc(Cl)s5)cc34)cc2)CC1` [Example 146, N-((5-chlorothiophen-2-yl)methyl)-3-(4-(4-methylpiperazin-1-yl)benzamido)-1H-indazole-5-carboxamide], the IC50 against IKKε came out at 0.065 µM; on TBK1, 0.019 µM.

As to `CN1CCN(c2ccc(C(=O)Nc3n[nH]c4ccc(C(=O)NC5(c6cccs6)CCCCC5)cc34)cc2)CC1` [Example 147, 3-(4-(4-Methylpiperazin-1-yl)benzamido)-N-(1-(thiophen-2-yl)cyclohexyl)-1H-indazole-5-carboxamide], the IC50 was 0.34 µM on IKKε and 0.11 µM at TBK1.

As to `O=C(NCc1cccs1)c1ccc2[nH]nc(NC(=O)c3ccc(N4CCOCC4)cc3)c2c1` [Example 148, 3-(4-Morpholinobenzamido)-N-(thiophen-2-ylmethyl)-1H-indazole-5-carboxamide], the IC50 against IKKε amounted to 0.031 µM; on TBK1 it was 0.004 µM.

Consider `CN1CCN(c2ccc(C(=O)Nc3n[nH]c4ccc(C(=O)NCc5cccs5)cc34)cc2)CC1` [Example 149, 3-(4-(4-methylpiperazin-1-yl)benzamido)-N-(thiophen-2-ylmethyl)-1H-indazole-5-carboxamide], for which the IC50 on IKKε is 0.032 µM; against TBK1, 0.0075 µM.

On to `COCCNc1ccc(C(=O)Nc2n[nH]c3ccc(C(=O)NCc4cccs4)cc23)cc1` [Example 150, 3-(4-((2-methoxyethyl)amino)benzamido)-N-(thiophen-2-ylmethyl)-1H-indazole-5-carboxamide], for which the IC50 against IKKε was found to be 0.049 µM; at TBK1, 0.0072 µM.

For the compound `COCCCNc1ccc(C(=O)Nc2n[nH]c3ccc(C(=O)NCc4cccs4)cc23)cc1` [Example 151, 3-(4-((3-Methoxypropyl)amino)benzamido)-N-(thiophen-2-ylmethyl)-1H-indazole-5-carboxamide], the values for the IC50 against IKKε and against TBK1 were 0.052 µM and 0.0079 µM, respectively.

As to `O=C(NCc1cccs1)c1ccc2[nH]nc(NC(=O)c3ccc(NCCN4CCCC4)cc3)c2c1` [Example 152, 3-(4-((2-(Pyrrolidin-1-yl)ethyl)amino)benzamido)-N-(thiophen-2-ylmethyl)-1H-indazole-5-carboxamide], the IC50 stood at 0.092 µM against IKKε and 0.004 µM against TBK1.

With `O=C(NCc1cccs1)c1ccc2[nH]nc(NC(=O)c3ccc(NCCN4CCOCC4)cc3)c2c1` [Example 153, 3-(4-((2-morpholinoethyl)amino)benzamido)-N-(thiophen-2-ylmethyl)-1H-indazole-5-carboxamide], the IC50 on IKKε turned out to be 0.037 µM; against TBK1, 0.0037 µM.

Take `CN(C)CCCNc1ccc(C(=O)Nc2n[nH]c3ccc(C(=O)NCc4cccs4)cc23)cc1` [Example 154, 3-(4-((3-(Dimethylamino)propyl)amino)benzamido)-N-(thiophen-2-ylmethyl)-1H-indazole-5-carboxamide]: the results for the IC50 at IKKε and against TBK1 were 0.13 µM and 0.0086 µM, respectively.

With `CNCCN(C)c1ccc(C(=O)Nc2n[nH]c3ccc(C(=O)NCc4cccs4)cc23)cc1` [Example 155, 3-(4-(Methyl(2-(methylamino)ethyl)amino)benzamido)-N-(thiophen-2-ylmethyl)-1H-indazole-5-carboxamide], the IC50 was 0.094 µM against IKKε and 0.0064 µM at TBK1.

For the compound `O=C(NCc1cccs1)c1ccc2[nH]nc(NC(=O)c3cccc(N4CCOCC4)c3)c2c1` [Example 156, 3-(3-Morpholinobenzamido)-N-(thiophen-2-ylmethyl)-1H-indazole-5-carboxamide], the values for the IC50 on IKKε and on TBK1 were 0.29 µM and 0.077 µM, respectively.

In the case of `O=C(NCc1cccs1)c1ccc2[nH]nc(NC(=O)c3ccc(NCC4CCCO4)cc3)c2c1` (stereo not drawn) [Example 157, 3-(4-(((Tetrahydrofuran-2-yl)methyl)amino)benzamido)-N-(thiophen-2-ylmethyl)-1H-indazole-5-carboxamide], the IC50 was determined as 0.05 µM at IKKε and 0.008 µM against TBK1.

`CN(C)CCNc1ccc(C(=O)Nc2n[nH]c3ccc(C(=O)NCc4cccs4)cc23)cc1` [Example 158, 3-(4-((2-(Dimethylamino)ethyl)amino)benzamido)-N-(thiophen-2-ylmethyl)-1H-indazole-5-carboxamide]: the values for the IC50 against IKKε and against TBK1 were 0.096 µM and 0.0087 µM, respectively.

Take `CC(C)CCNc1ccc(C(=O)Nc2n[nH]c3ccc(C(=O)NCc4cccs4)cc23)cc1` [Example 159, 3-(4-(Isopentylamino)benzamido)-N-(thiophen-2-ylmethyl)-1H-indazole-5-carboxamide]: the IC50 against IKKε was determined as 0.31 µM; against TBK1, 0.033 µM.

In the case of `O=C(NCc1cccs1)c1ccc2[nH]nc(NC(=O)c3ccc(NCCC4=CCCCC4)cc3)c2c1` [Example 167, 3-(4-((2-(Cyclohex-1-en-1-yl)ethyl)amino)benzamido)-N-(thiophen-2-ylmethyl)-1H-indazole-5-carboxamide], the results for the IC50 against IKKε and against TBK1 were 3.9 µM and 1.1 µM, respectively.

In the case of `O=C(NCc1cccs1)c1ccc2[nH]nc(NC(=O)c3ccc(N4CCNCC4)cc3)c2c1` [Example 171, 3-(4-(Piperazin-1-yl)benzamido)-N-(thiophen-2-ylmethyl)-1H-indazole-5-carboxamide], the IC50 on IKKε is 0.0038 µM; against TBK1, 0.0003 µM.

Turning to `CN1CCN(c2ccc(C(=O)Nc3n[nH]c4ccc(C(=O)NCc5cnco5)cc34)cc2)CC1` [Example 172, 3-(4-(4-Methylpiperazin-1-yl)benzamido)-N-(oxazol-5-ylmethyl)-1H-indazole-5-carboxamide], the IC50 against IKKε came to 0.31 µM; at TBK1 it was 0.035 µM.

For `CN1CCN(c2ccc(C(=O)Nc3n[nH]c4ccc(C(=O)NCc5ccon5)cc34)cc2)CC1` [Example 173, N-(Isoxazol-3-ylmethyl)-3-(4-(4-methylpiperazin-1-yl)benzamido)-1H-indazole-5-carboxamide], the IC50 on IKKε turned out to be 0.26 µM; against TBK1 it was 0.033 µM.

For `CN1CCN(c2ccc(C(=O)Nc3n[nH]c4ccc(C(=O)NCc5cscn5)cc34)cc2)CC1` [Example 174, 3-(4-(4-Methylpiperazin-1-yl)benzamido)-N-(thiazol-4-ylmethyl)-1H-indazole-5-carboxamide], the IC50 on IKKε turned out to be 0.54 µM; on TBK1, 0.045 µM.

The values are drawn from patent US10294207B2, “Pyrazole derivatives as TNIK, IKKϵ and TBK1 inhibitor and pharmaceutical composition comprising same” (GREEN CROSS CORPORATION, priority 2015, dated 2019).
